In ChEMBL document CHEMBL4725265, “Short chain α-pyrones capable of potentiating penicillin G against Pseudomonas aeruginosa” (Bioorg Med Chem Lett, 2020):
Converted amounts (≈) assume the structure as drawn. Values belong to the compound of their own block, whether it stands above or below them. The source made the active and inactive calls. The rule behind the calls is not given here.

Key:
Pseudomonas aeruginosa [1] = assay: Antibacterial activity against Pseudomonas aeruginosa GKCW120 harboring P6 deletion mutant assessed as growth inhibition incubated for 24 hrs by micro dilution assay; format: functional
Pseudomonas aeruginosa [2] = assay: Antibacterial activity against Pseudomonas aeruginosa PAO1 assessed as growth inhibition by micro dilution assay; format: functional
Pseudomonas aeruginosa [3] = assay: Antibacterial activity against Pseudomonas aeruginosa GKCW120 harboring P6 deletion mutant assessed as growth inhibition incubated for 8 hrs by micro dilution assay; format: functional
Pseudomonas aeruginosa [4] = assay: Potentiation of erythromycin-induced antibacterial activity against Pseudomonas aeruginosa assessed as erythromycin MIC at 50 uM after 12 to 24 hrs (reference value: 0.5 microg/ml); format: functional; conditions: time hrs 12-24
Bacillus subtilis [5] = assay: Potentiation of vancomycin-induced antibacterial activity against Bacillus subtilis assessed as fold reduction in vancomycin MIC at 50 uM after 12 to 24 hrs relative to vancomycin MIC alone; format: functional; conditions: time hrs 12-24
Pseudomonas aeruginosa [6] = assay: Potentiation of penicillin G-induced antibacterial activity against Pseudomonas aeruginosa assessed as fold reduction in penicillin G MIC at 50 uM after 12 to 24 hrs relative to penicillin G MIC alone; format: functional; conditions: time hrs 12-24
Pseudomonas aeruginosa [7] = assay: Potentiation of vancomycin-induced antibacterial activity against Pseudomonas aeruginosa assessed as fold reduction in vancomycin MIC at 50 uM after 12 to 24 hrs relative to vancomycin MIC alone; format: functional; conditions: time hrs 12-24
Staphylococcus aureus [8] = assay: Potentiation of erythromycin-induced antibacterial activity against Staphylococcus aureus assessed as fold reduction in erythromycin MIC at 50 uM after 12 to 24 hrs relative to erythromycin MIC alone; format: functional; conditions: time hrs 12-24
Pseudomonas aeruginosa [9] = assay: Potentiation of amoxicillin-induced antibacterial activity against Pseudomonas aeruginosa assessed as fold reduction in amoxicillin MIC at 50 uM after 12 to 24 hrs relative to amoxicillin MIC alone; format: functional; conditions: time hrs 12-24
Staphylococcus aureus [10] = assay: Potentiation of penicillin G-induced antibacterial activity against Staphylococcus aureus assessed as penicillin G MIC at 50 uM after 12 to 24 hrs (reference value: […] microg/ml); format: functional; conditions: time hrs 12-24
Escherichia coli [11] = assay: Potentiation of erythromycin-induced antibacterial activity against Escherichia coli assessed as fold reduction in erythromycin MIC at 50 uM after 12 to 24 hrs relative to erythromycin MIC alone; format: functional; conditions: time hrs 12-24
Staphylococcus aureus [12] = assay: Potentiation of vancomycin-induced antibacterial activity against Staphylococcus aureus assessed as fold reduction in vancomycin MIC at 50 uM after 12 to 24 hrs relative to vancomycin MIC alone; format: functional; conditions: time hrs 12-24
Bacillus subtilis [13] = assay: Potentiation of amoxicillin-induced antibacterial activity against Bacillus subtilis assessed as amoxicillin MIC at 50 uM after 12 to 24 hrs (reference value: 64 microg/ml); format: functional; conditions: time hrs 12-24
Escherichia coli [14] = assay: Antibacterial activity against Escherichia coli; format: functional, organism-based
Bacillus subtilis [15] = assay: Potentiation of penicillin G-induced antibacterial activity against Bacillus subtilis assessed as fold reduction in penicillin G MIC at 50 uM after 12 to 24 hrs relative to penicillin G MIC alone; format: functional; conditions: time hrs 12-24
Pseudomonas aeruginosa [16] = assay: Potentiation of erythromycin-induced antibacterial activity against Pseudomonas aeruginosa assessed as fold reduction in erythromycin MIC at 50 uM after 12 to 24 hrs relative to erythromycin MIC alone; format: functional; conditions: time hrs 12-24
Bacillus subtilis [17] = assay: Potentiation of erythromycin-induced antibacterial activity against Bacillus subtilis assessed as fold reduction in erythromycin MIC at 50 uM after 12 to 24 hrs relative to erythromycin MIC alone; format: functional; conditions: time hrs 12-24
Escherichia coli [18] = assay: Potentiation of erythromycin-induced antibacterial activity against Escherichia coli assessed as erythromycin MIC at 50 uM after 12 to 24 hrs (reference value: 1 microg/ml); format: functional; conditions: time hrs 12-24
Bacillus subtilis [19] = assay: Potentiation of penicillin G-induced antibacterial activity against Bacillus subtilis assessed as penicillin G MIC at 50 uM after 12 to 24 hrs (reference value: 64 microg/ml); format: functional; conditions: time hrs 12-24
Escherichia coli [20] = assay: Potentiation of penicillin G-induced antibacterial activity against Escherichia coli assessed as fold reduction in penicillin G MIC at 50 uM after 12 to 24 hrs relative to penicillin G MIC alone; format: functional; conditions: time hrs 12-24
Pseudomonas aeruginosa [21] = assay: Antibiofilm activity against Pseudomonas aeruginosa by crystal violet staining based assay; format: functional, organism-based
Bacillus subtilis [22] = assay: Potentiation of vancomycin-induced antibacterial activity against Bacillus subtilis assessed as vancomycin MIC at 50 uM after 12 to 24 hrs (reference value: 64 microg/ml); format: functional; conditions: time hrs 12-24
Pseudomonas aeruginosa [23] = assay: Antibacterial activity against Pseudomonas aeruginosa assessed as cell wall perturbation by XTT assay; format: functional, organism-based
Bacillus subtilis [24] = assay: Antibacterial activity against Bacillus subtilis; format: functional, organism-based
Staphylococcus aureus [25] = assay: Antibacterial activity against Staphylococcus aureus; format: functional, organism-based
Staphylococcus aureus [26] = assay: Potentiation of vancomycin-induced antibacterial activity against Staphylococcus aureus assessed as vancomycin MIC at 50 uM after 12 to 24 hrs (reference value: 0.5 microg/ml); format: functional; conditions: time hrs 12-24
Bacillus subtilis [27] = assay: Potentiation of erythromycin-induced antibacterial activity against Bacillus subtilis assessed as erythromycin MIC at 50 uM after 12 to 24 hrs (reference value: 0.5 microg/ml); format: functional; conditions: time hrs 12-24
Escherichia coli [28] = assay: Potentiation of amoxicillin-induced antibacterial activity against Escherichia coli assessed as fold reduction in amoxicillin MIC at 50 uM after 12 to 24 hrs relative to amoxicillin MIC alone; format: functional; conditions: time hrs 12-24
Escherichia coli [29] = assay: Potentiation of amoxicillin-induced antibacterial activity against Escherichia coli assessed as amoxicillin MIC at 50 uM after 12 to 24 hrs (reference value: 4 microg/ml); format: functional; conditions: time hrs 12-24
Escherichia coli [30] = assay: Potentiation of vancomycin-induced antibacterial activity against Escherichia coli assessed as vancomycin MIC at 50 uM after 12 to 24 hrs (reference value: 64 microg/ml); format: functional; conditions: time hrs 12-24
Bacillus subtilis [31] = assay: Potentiation of amoxicillin-induced antibacterial activity against Bacillus subtilis assessed as fold reduction in amoxicillin MIC at 50 uM after 12 to 24 hrs relative to amoxicillin MIC alone; format: functional; conditions: time hrs 12-24
Staphylococcus aureus [32] = assay: Potentiation of amoxicillin-induced antibacterial activity against Staphylococcus aureus assessed as fold reduction in amoxicillin MIC at 50 uM after 12 to 24 hrs relative to amoxicillin MIC alone; format: functional; conditions: time hrs 12-24
Staphylococcus aureus [33] = assay: Potentiation of penicillin G-induced antibacterial activity against Staphylococcus aureus assessed as fold reduction in penicillin G MIC at 50 uM after 12 to 24 hrs relative to penicillin G MIC alone; format: functional; conditions: time hrs 12-24
Staphylococcus aureus [34] = assay: Potentiation of amoxicillin-induced antibacterial activity against Staphylococcus aureus assessed as amoxicillin MIC at 50 uM after 12 to 24 hrs (reference value: 128 microg/ml); format: functional; conditions: time hrs 12-24
Escherichia coli [35] = assay: Potentiation of penicillin G-induced antibacterial activity against Escherichia coli assessed as penicillin G MIC at 50 uM after 12 to 24 hrs (reference value: 64 microg/ml); format: functional; conditions: time hrs 12-24
Staphylococcus aureus [36] = assay: Potentiation of erythromycin-induced antibacterial activity against Staphylococcus aureus assessed as erythromycin MIC at 50 uM after 12 to 24 hrs (reference value: 0.5 microg/ml); format: functional; conditions: time hrs 12-24
Escherichia coli [37] = assay: Potentiation of vancomycin-induced antibacterial activity against Escherichia coli assessed as fold reduction in vancomycin MIC at 50 uM after 12 to 24 hrs relative to vancomycin MIC alone; format: functional; conditions: time hrs 12-24
Pseudomonas aeruginosa [38] = assay: Potentiation of vancomycin-induced antibacterial activity against Pseudomonas aeruginosa assessed as vancomycin MIC at 50 uM after 12 to 24 hrs (reference value: 1 microg/ml); format: functional; conditions: time hrs 12-24
Pseudomonas aeruginosa [39] = assay: Potentiation of amoxicillin-induced antibacterial activity against Pseudomonas aeruginosa assessed as amoxicillin MIC at 50 uM after 12 to 24 hrs (reference value: 2 microg/ml); format: functional; conditions: time hrs 12-24
Pseudomonas aeruginosa [40] = assay: Potentiation of penicillin G-induced antibacterial activity against Pseudomonas aeruginosa assessed as penicillin G MIC at 50 uM after 12 to 24 hrs (Rvb > 128 microg/ml); format: functional; conditions: time hrs 12-24
Pseudomonas aeruginosa [41] = assay: Antibacterial activity against Pseudomonas aeruginosa; format: functional, organism-based

Structure (SMILES): CC1(C)S[C@@H]2[C@H](NC(=O)Cc3ccccc3)C(=O)N2[C@H]1C(=O)O [PENICILLIN G]
MIC (Pseudomonas aeruginosa [1]): > 128 µg/mL
MIC (Pseudomonas aeruginosa [2]): > 128 µg/mL
MIC (Pseudomonas aeruginosa [3]): 0.5 µg/mL (≈ 1.5 µM)

MIC (Pseudomonas aeruginosa [4]): 0.5 µg/mL
MIC (Staphylococcus aureus [10]): 64 µg/mL
MIC (Bacillus subtilis [13]): 64 µg/mL
IC50 (Escherichia coli [14]): > 100 µg/mL
MIC (Escherichia coli [14]): > 500 µM
MIC (Escherichia coli [18]): 1 µg/mL
MIC (Bacillus subtilis [19]): 64 µg/mL
MIC (Bacillus subtilis [22]): 64 µg/mL
IC50 (Bacillus subtilis [24]): > 100 µg/mL
MIC (Bacillus subtilis [24]): > 500 µM
IC50 (Staphylococcus aureus [25]): > 100 µg/mL
MIC (Staphylococcus aureus [25]): > 500 µM
MIC (Staphylococcus aureus [26]): 0.5 µg/mL
MIC (Bacillus subtilis [27]): 0.5 µg/mL
MIC (Escherichia coli [29]): 4 µg/mL
MIC (Escherichia coli [30]): 64 µg/mL
MIC (Staphylococcus aureus [34]): 128 µg/mL
MIC (Escherichia coli [35]): 64 µg/mL
MIC (Staphylococcus aureus [36]): 0.5 µg/mL
MIC (Pseudomonas aeruginosa [38]): 1 µg/mL
MIC (Pseudomonas aeruginosa [39]): 2 µg/mL
MIC (Pseudomonas aeruginosa [40]): 128 µg/mL
IC50 (Pseudomonas aeruginosa [41]): > 1000 µg/mL
MIC (Pseudomonas aeruginosa [41]): > 5000 µM
Structure (SMILES): CCCc1c(O)cc(CC)oc1=O
Ratio (Bacillus subtilis [5]): 1
Ratio (Pseudomonas aeruginosa [6]): >1
Ratio (Pseudomonas aeruginosa [7]): 1
Ratio (Staphylococcus aureus [8]): 1
Ratio (Pseudomonas aeruginosa [9]): 1
Ratio (Escherichia coli [11]): 1
Ratio (Staphylococcus aureus [12]): 1
Ratio (Bacillus subtilis [15]): 1
Ratio (Pseudomonas aeruginosa [16]): 1
Ratio (Bacillus subtilis [17]): 1
Ratio (Escherichia coli [20]): 1
Activity (Pseudomonas aeruginosa [21]): inactive
Activity (Pseudomonas aeruginosa [23]): inactive
Ratio (Escherichia coli [28]): 1
Ratio (Bacillus subtilis [31]): 1
Ratio (Staphylococcus aureus [32]): 1
Ratio (Staphylococcus aureus [33]): 1
Ratio (Escherichia coli [37]): 1

MIC (Pseudomonas aeruginosa [4]): 0.5 µg/mL
MIC (Staphylococcus aureus [10]): 64 µg/mL
MIC (Bacillus subtilis [13]): 64 µg/mL
IC50 (Escherichia coli [14]): > 100 µg/mL
MIC (Escherichia coli [14]): > 500 µM
MIC (Escherichia coli [18]): 1 µg/mL
MIC (Bacillus subtilis [19]): 64 µg/mL
MIC (Bacillus subtilis [22]): 64 µg/mL
IC50 (Bacillus subtilis [24]): > 100 µg/mL
MIC (Bacillus subtilis [24]): > 500 µM
IC50 (Staphylococcus aureus [25]): > 100 µg/mL
MIC (Staphylococcus aureus [25]): > 500 µM
MIC (Staphylococcus aureus [26]): 0.5 µg/mL
MIC (Bacillus subtilis [27]): 0.5 µg/mL
MIC (Escherichia coli [29]): 4 µg/mL
MIC (Escherichia coli [30]): 64 µg/mL
MIC (Staphylococcus aureus [34]): 128 µg/mL
MIC (Escherichia coli [35]): 64 µg/mL
MIC (Staphylococcus aureus [36]): 0.5 µg/mL
MIC (Pseudomonas aeruginosa [38]): 1 µg/mL
MIC (Pseudomonas aeruginosa [39]): 2 µg/mL
MIC (Pseudomonas aeruginosa [40]): 0.5 µg/mL
IC50 (Pseudomonas aeruginosa [41]): > 1000 µg/mL
MIC (Pseudomonas aeruginosa [41]): > 5000 µM
Structure (SMILES): CCC(=O)c1c(O)cc(CC)oc1=O
Ratio (Bacillus subtilis [5]): 1
Ratio (Pseudomonas aeruginosa [6]): >256
Ratio (Pseudomonas aeruginosa [7]): 1
Ratio (Staphylococcus aureus [8]): 1
Ratio (Pseudomonas aeruginosa [9]): 1
Ratio (Escherichia coli [11]): 1
Ratio (Staphylococcus aureus [12]): 1
Ratio (Bacillus subtilis [15]): 1
Ratio (Pseudomonas aeruginosa [16]): 1
Ratio (Bacillus subtilis [17]): 1
Ratio (Escherichia coli [20]): 1
Activity (Pseudomonas aeruginosa [21]): inactive
Activity (Pseudomonas aeruginosa [23]): inactive
Ratio (Escherichia coli [28]): 1
Ratio (Bacillus subtilis [31]): 1
Ratio (Staphylococcus aureus [32]): 1
Ratio (Staphylococcus aureus [33]): 1
Ratio (Escherichia coli [37]): 1
